Laboratory results published in ChEMBL document CHEMBL1201862, “PubChem BioAssay data set” (2004).
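Step 1: Grow cells in 96-well plates. Step 2: Expose to compound for 48 hours at 5 concentrations. Step 3: Interpolate endpoints linearly; if unreached, use highest concentration. The concentration for 50% growth inhibition is given as GI50.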 Active and inactive are the calls of the source. Rule as the data show it: active = GI50 up to about 1.1 µM and inactive = higher.

How the values were obtained:
Experiment in all cases: NCI tumour cell line growth inhibition, 48 h
OVCAR-4 = system: OVCAR-4
EKVX = system: EKVX
SK-MEL-5 = system: SK-MEL-5
SK-OV-3 = system: SK-OV-3
CCRF-CEM = system: CCRF-CEM
A549 = system: A549
A498 = system: A498
SN12C = system: SN12C
Malme-3M = system: Malme-3M
U-251 = system: U-251
HOP-92 = system: HOP-92
SR = system: SR
NCI-H460 = system: NCI-H460
SNB-19 = system: SNB-19
HL-60 = system: HL-60
SF-268 = system: SF-268
HT-29 = system: HT-29
MOLT-4 = system: MOLT-4
HOP-62 = system: HOP-62
SNB-75 = system: SNB-75

Row | Structure (SMILES) | GI50 (OVCAR-4) | GI50 (EKVX) | GI50 (SK-MEL-5) | GI50 (SK-OV-3) | GI50 (CCRF-CEM) | GI50 (A549) | GI50 (A498) | GI50 (SN12C) | GI50 (Malme-3M) | GI50 (U-251) | GI50 (HOP-92) | GI50 (SR) | GI50 (NCI-H460) | GI50 (SNB-19) | GI50 (HL-60) | GI50 (SF-268) | GI50 (HT-29) | GI50 (MOLT-4) | GI50 (HOP-62) | GI50 (SNB-75)
1 | C[C@H]1CC[C@@H]2[C@@H](C)[C@H]3[C@H](C[C@H]4[C@@H]5CC=C6C[C@@H](O)CC[C@]6(C)[C@H]5CC[C@]34C)N2C1 | 32.4 µM (inactive) | 36.4 µM (inactive) | 38.3 µM (inactive) | > 100 µM (inactive) | 32.5 µM (inactive) | > 100 µM (inactive) | 13.6 µM (inactive) | > 100 µM (inactive) | > 100 µM (inactive) | 31.8 µM (inactive) | 12.6 µM (inactive) | 22.6 µM (inactive) | 37.9 µM (inactive) | 97.9 µM (inactive) | 17.5 µM (inactive) | > 100 µM (inactive) | 18.6 µM (inactive) | 24.5 µM (inactive) | 31.4 µM (inactive) | –
2 | CS(=O)(=O)OCC1CCCCCCCCCCC12SCCCS2 (configuration not stated) | > 100 µM (inactive) | > 100 µM (inactive) | > 100 µM (inactive) | > 100 µM (inactive) | > 100 µM (inactive) | > 100 µM (inactive) | > 100 µM (inactive) | > 100 µM (inactive) | > 100 µM (inactive) | > 100 µM (inactive) | > 100 µM (inactive) | > 100 µM (inactive) | > 100 µM (inactive) | > 100 µM (inactive) | > 100 µM (inactive) | > 100 µM (inactive) | > 100 µM (inactive) | > 100 µM (inactive) | > 100 µM (inactive) | –
3 | O=[N+]([O-])c1c(O)c2nonc2c2nn(-c3ccccc3)nc12 | 83.4 µM (inactive) | > 100 µM (inactive) | > 100 µM (inactive) | > 100 µM (inactive) | > 100 µM (inactive) | > 100 µM (inactive) | – | > 100 µM (inactive) | > 100 µM (inactive) | > 100 µM (inactive) | > 100 µM (inactive) | > 100 µM (inactive) | > 100 µM (inactive) | > 100 µM (inactive) | > 100 µM (inactive) | > 100 µM (inactive) | > 100 µM (inactive) | > 100 µM (inactive) | > 100 µM (inactive) | > 100 µM (inactive)
4 | Cn1ccnc1C(c1nccn1C)C(C)(C)[N+](=O)[O-] | > 100 µM (inactive) | > 100 µM (inactive) | > 100 µM (inactive) | > 100 µM (inactive) | > 100 µM (inactive) | > 100 µM (inactive) | > 100 µM (inactive) | > 100 µM (inactive) | – | > 100 µM (inactive) | > 100 µM (inactive) | > 100 µM (inactive) | > 100 µM (inactive) | – | > 100 µM (inactive) | > 100 µM (inactive) | – | > 100 µM (inactive) | > 100 µM (inactive) | > 100 µM (inactive)
5 | CCC1c2[nH]c3ccccc3c2C[C@H]2C(=O)NC(C)C(=O)N12 (some centres not stated) | > 100 µM (inactive) | > 100 µM (inactive) | > 100 µM (inactive) | > 100 µM (inactive) | – | > 100 µM (inactive) | > 100 µM (inactive) | > 100 µM (inactive) | > 100 µM (inactive) | > 100 µM (inactive) | > 100 µM (inactive) | > 100 µM (inactive) | – | > 100 µM (inactive) | > 100 µM (inactive) | > 100 µM (inactive) | > 100 µM (inactive) | > 100 µM (inactive) | > 100 µM (inactive) | 23.7 µM (inactive)
6 | COC(=O)/C=C\n1ncc(=O)[nH]c1=O | > 100 µM (inactive) | > 100 µM (inactive) | > 100 µM (inactive) | – | – | > 100 µM (inactive) | > 100 µM (inactive) | > 100 µM (inactive) | > 100 µM (inactive) | > 100 µM (inactive) | > 100 µM (inactive) | > 10 µM (inactive) | > 100 µM (inactive) | > 100 µM (inactive) | > 100 µM (inactive) | > 100 µM (inactive) | > 100 µM (inactive) | > 100 µM (inactive) | > 100 µM (inactive) | > 100 µM (inactive)
7 | O=C(O)CCCN1CCCCC1 | > 100 µM (inactive) | > 100 µM (inactive) | > 100 µM (inactive) | – | > 100 µM (inactive) | > 100 µM (inactive) | > 100 µM (inactive) | > 100 µM (inactive) | > 100 µM (inactive) | > 100 µM (inactive) | > 100 µM (inactive) | > 100 µM (inactive) | > 100 µM (inactive) | > 100 µM (inactive) | – | > 100 µM (inactive) | > 100 µM (inactive) | > 100 µM (inactive) | > 100 µM (inactive) | > 100 µM (inactive)
8 | COc1cc2c(c(N)c1OC)C(=O)/C(=C/c1cc(C)c(O)c(C)c1)C2 | 7.91 µM (inactive) | < 0.01 µM (active) | < 0.01 µM (active) | < 0.01 µM (active) | < 0.01 µM (active) | < 0.01 µM (active) | 7.13 µM (inactive) | < 0.01 µM (active) | – | < 0.0164 µM (active) | > 100 µM (inactive) | < 0.01 µM (active) | < 0.01 µM (active) | < 0.01 µM (active) | < 0.01 µM (active) | < 0.01 µM (active) | 2.64 µM (inactive) | < 0.01 µM (active) | < 0.0176 µM (active) | –
9 | NC(=O)/N=C(\N)NC(=O)c1ccccc1 | – | > 100 µM (inactive) | > 100 µM (inactive) | – | – | > 100 µM (inactive) | > 100 µM (inactive) | > 100 µM (inactive) | > 100 µM (inactive) | > 100 µM (inactive) | > 100 µM (inactive) | > 100 µM (inactive) | > 100 µM (inactive) | > 100 µM (inactive) | > 100 µM (inactive) | – | > 100 µM (inactive) | > 100 µM (inactive) | > 100 µM (inactive) | –
10 | COc1ccc(NC(=S)N/N=C\c2ccc(NC(C)=O)cc2)cc1 | > 100 µM (inactive) | > 100 µM (inactive) | > 100 µM (inactive) | > 100 µM (inactive) | > 100 µM (inactive) | > 100 µM (inactive) | – | > 100 µM (inactive) | > 100 µM (inactive) | > 100 µM (inactive) | > 100 µM (inactive) | 14.2 µM (inactive) | > 100 µM (inactive) | > 100 µM (inactive) | 41.1 µM (inactive) | – | > 100 µM (inactive) | > 100 µM (inactive) | > 100 µM (inactive) | > 100 µM (inactive)
11 | O=P1(N(CCCl)CCCl)Oc2c(Cl)cc(Cl)c(Cl)c2Cc2c(Cl)c(Cl)cc(Cl)c2O1 | 26.7 µM (inactive) | 92.3 µM (inactive) | 77.3 µM (inactive) | 43.2 µM (inactive) | 29.2 µM (inactive) | 38.5 µM (inactive) | > 100 µM (inactive) | 61.9 µM (inactive) | – | 96.6 µM (inactive) | 24.5 µM (inactive) | 35.2 µM (inactive) | 25.2 µM (inactive) | – | > 100 µM (inactive) | > 100 µM (inactive) | 41.4 µM (inactive) | 95.7 µM (inactive) | 64 µM (inactive) | > 100 µM (inactive)
12 | CN(C)c1ccc(/C=C/c2cc(-c3ccccc3)[n+](C)n2-c2ccccc2)cc1 | 6.41 µM (inactive) | 0.138 µM (active) | 0.0341 µM (active) | 0.401 µM (active) | 0.035 µM (active) | 0.411 µM (active) | 0.774 µM (active) | 0.293 µM (active) | – | 0.0573 µM (active) | 0.467 µM (active) | 0.103 µM (active) | 0.122 µM (active) | 0.0865 µM (active) | 0.0218 µM (active) | 0.431 µM (active) | 0.0995 µM (active) | 0.144 µM (active) | 0.54 µM (active) | –
13 | COc1ccc2nc3c([N+](=O)[O-])ccc(NCCCN(C)C)c3c(N)c2c1 | 1.5 µM (inactive) | 1.74 µM (inactive) | 1.87 µM (inactive) | 1.45 µM (inactive) | 0.245 µM (active) | 1.49 µM (inactive) | – | 1.6 µM (inactive) | 1.42 µM (inactive) | 1.57 µM (inactive) | 1.87 µM (inactive) | 0.721 µM (active) | 1.21 µM (inactive) | 2.01 µM (inactive) | 1.61 µM (inactive) | 1.45 µM (inactive) | 0.845 µM (active) | 0.276 µM (active) | 1.78 µM (inactive) | 1.66 µM (inactive)
14 | C#Cc1cccc(N2C(=O)CCC2=O)c1 | 13.1 µM (inactive) | 18.3 µM (inactive) | 20.5 µM (inactive) | 21 µM (inactive) | 1.56 µM (inactive) | 21.4 µM (inactive) | 15.6 µM (inactive) | 18.5 µM (inactive) | 14.7 µM (inactive) | 1.67 µM (inactive) | – | 1.74 µM (inactive) | 27.5 µM (inactive) | 31.4 µM (inactive) | 2.25 µM (inactive) | 17.7 µM (inactive) | 12.1 µM (inactive) | 2.77 µM (inactive) | > 10 µM (inactive) | 13.6 µM (inactive)
15 | Fc1cccc(C2SCC3=Nc4ccccc4CN32)c1 (configuration not stated) | 95.7 µM (inactive) | 25.4 µM (inactive) | 17.9 µM (inactive) | 39.6 µM (inactive) | 29.9 µM (inactive) | 59.6 µM (inactive) | > 100 µM (inactive) | > 100 µM (inactive) | – | 58.2 µM (inactive) | 84.1 µM (inactive) | 38.6 µM (inactive) | 37.9 µM (inactive) | 21.6 µM (inactive) | 35.1 µM (inactive) | 67.1 µM (inactive) | 21.3 µM (inactive) | 37.8 µM (inactive) | 38.9 µM (inactive) | > 100 µM (inactive)
